In ChEMBL document CHEMBL1201862, “PubChem BioAssay data set” (2004):
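1) Cells in 96-well plates. 2) Compound, 48 h, 5 concentrations. 3) Linear interpolation between surrounding doses. 4) Unreached endpoint = highest concentration. At the GI50, growth is halved.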 The source made the active and inactive calls. No stated cut-off is given here; in the data, active = GI50 up to about 1.1 µM and inactive = higher.

Tests used:
Assay in all cases: inhibition of tumour cell growth, NCI panel, 48 h
RXF 393 = system: RXF 393
DU-145 = system: DU-145
UACC-257 = system: UACC-257
A549 = system: A549
U-251 = system: U-251
BT-549 = system: BT-549
K562 = system: K562
IGROV-1 = system: IGROV-1
HCT-15 = system: HCT-15
A498 = system: A498
MDA-MB-435 = system: MDA-MB-435
NCI-H460 = system: NCI-H460
SK-MEL-28 = system: SK-MEL-28
MCF7 = system: MCF7
SF-268 = system: SF-268
NCI-H226 = system: NCI-H226
MDA-MB-231 = system: MDA-MB-231
LOX IMVI = system: LOX IMVI
CCRF-CEM = system: CCRF-CEM
SN12C = system: SN12C
SK-MEL-5 = system: SK-MEL-5
SNB-19 = system: SNB-19
NCI-H522 = system: NCI-H522
PC-3 = system: PC-3
SF-295 = system: SF-295
SR = system: SR
786-0 = system: 786-0
COLO 205 = system: COLO 205
OVCAR-3 = system: OVCAR-3
TK-10 = system: TK-10
Malme-3M = system: Malme-3M
UO-31 = system: UO-31
ACHN = system: ACHN
HCC 2998 = system: HCC 2998
OVCAR-5 = system: OVCAR-5
T47D = system: T47D
HT-29 = system: HT-29
SF-539 = system: SF-539
HCT-116 = system: HCT-116
NCI-H23 = system: NCI-H23
M14 = system: M14
SK-MEL-2 = system: SK-MEL-2
MDA-N = system: MDA-N
SK-OV-3 = system: SK-OV-3
SW-620 = system: SW-620
KM12 = system: KM12
UACC-62 = system: UACC-62
MOLT-4 = system: MOLT-4
HOP-92 = system: HOP-92
Hs-578T = system: Hs-578T
HOP-62 = system: HOP-62
EKVX = system: EKVX
OVCAR-4 = system: OVCAR-4
RPMI-8226 = system: RPMI-8226
CAKI-1 = system: CAKI-1
OVCAR-8 = system: OVCAR-8
HL-60 = system: HL-60
SNB-75 = system: SNB-75
NCI/ADR-RES = system: NCI/ADR-RES

Measured: GI50

COC(=O)C(CNC(=O)/C=C/c1ccc(OC(C)=O)c(OC(C)=O)c1)NC(=O)/C=C/c1ccc(OC(C)=O)c(OC(C)=O)c1 (stereo not drawn)
inactive: RXF 393 > 100 µM | DU-145 > 100 µM | UACC-257 > 100 µM | A549 > 100 µM | U-251 88.7 µM | BT-549 > 100 µM | K562 64.1 µM | IGROV-1 > 100 µM | A498 > 100 µM | MDA-MB-435 > 100 µM | NCI-H460 > 100 µM | SK-MEL-28 > 100 µM | MCF7 > 100 µM | SF-268 > 100 µM | NCI-H226 > 100 µM | MDA-MB-231 > 100 µM | LOX IMVI > 100 µM | CCRF-CEM 42.4 µM | SN12C > 100 µM | SK-MEL-5 > 100 µM | SNB-19 93.3 µM | NCI-H522 32.1 µM | PC-3 > 100 µM | SF-295 > 100 µM | SR 92.9 µM | 786-0 > 100 µM | COLO 205 > 100 µM | OVCAR-3 > 100 µM | TK-10 > 100 µM | Malme-3M > 100 µM | UO-31 > 100 µM | ACHN > 100 µM | HCC 2998 > 100 µM | OVCAR-5 > 100 µM | T47D 77.3 µM | HT-29 > 100 µM | SF-539 > 100 µM | HCT-116 > 100 µM | NCI-H23 > 100 µM | M14 > 100 µM | SK-MEL-2 > 100 µM | MDA-N > 100 µM | SK-OV-3 57.5 µM | SW-620 > 100 µM | KM12 > 100 µM | UACC-62 > 100 µM | MOLT-4 30 µM | HOP-92 > 100 µM | Hs-578T > 100 µM | HOP-62 > 100 µM | EKVX > 100 µM | OVCAR-4 > 100 µM | RPMI-8226 > 100 µM | CAKI-1 > 100 µM | OVCAR-8 > 100 µM
> 100 µM: HCT-15

C[C@]1(S(=O)(=O)c2ccccc2)C[C@H]2N(Cc3ccccc3)[C@@H]1CCC21OCCO1
inactive: RXF 393 > 100 µM | DU-145 > 100 µM | UACC-257 22.3 µM | A549 86.1 µM | U-251 > 100 µM | HL-60 13.6 µM | BT-549 > 100 µM | K562 > 100 µM | IGROV-1 > 100 µM | MDA-MB-435 > 100 µM | NCI-H460 67.9 µM | SK-MEL-28 > 100 µM | SNB-75 > 100 µM | MCF7 78.9 µM | SF-268 > 100 µM | MDA-MB-231 > 100 µM | LOX IMVI > 100 µM | CCRF-CEM 49.1 µM | SN12C > 100 µM | SK-MEL-5 75.2 µM | SNB-19 > 100 µM | NCI-H522 72.6 µM | PC-3 70.5 µM | SF-295 90.4 µM | 786-0 > 100 µM | COLO 205 50.5 µM | OVCAR-3 > 100 µM | Malme-3M > 100 µM | UO-31 > 100 µM | ACHN > 100 µM | OVCAR-5 > 100 µM | T47D 41.6 µM | HT-29 58.6 µM | HCT-116 > 100 µM | NCI-H23 60.5 µM | NCI/ADR-RES 46.9 µM | M14 > 100 µM | SK-MEL-2 > 100 µM | MDA-N > 100 µM | SK-OV-3 > 100 µM | SW-620 94.6 µM | KM12 58.2 µM | UACC-62 > 100 µM | MOLT-4 30.8 µM | HOP-92 88.1 µM | Hs-578T > 100 µM | HOP-62 > 100 µM | EKVX > 100 µM | OVCAR-4 36.3 µM | CAKI-1 > 100 µM | OVCAR-8 > 100 µM
63.1 µM: HCT-15
